Results taken from patent US9376425B2, “Heterocyclic compounds as MDM2 inhibitors for the treatment of cancer” (AMGEN INC., priority 2011, dated 2016).

Molecular target: T1, human MDM2 (GST-hMDM2 1-188), interaction with biotinylated-p53 (1-83) (Homo sapiens, UniProt Q00987)
T1 construct: Amino acid residues 1-188 of human MDM2 were expressed; made in house; host or cells: Escherichia coli
Assay: improved HTRF assay (HTRF2 assay), inhibition of HDM2-p53 interaction
Format: binding
Conditions: 0.2 nM GST-hMDM2, 0.5 nM biotinylated-p53, 100 mM KF
Outline: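 Time-resolved fluorescence (HTRF) read after >4 h equilibration with SA-XLent/anti-GST cryptate/KF detection reagents. Reaction: compound plus GST-hMDM2 for 20 min at room temperature, then E. coli-expressed biotinylated p53 residues 1-83 for 60 min, 2% DMSO final. Inhibition expressed versus nutlin-3.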

T1 sequence (Q00987 1-188): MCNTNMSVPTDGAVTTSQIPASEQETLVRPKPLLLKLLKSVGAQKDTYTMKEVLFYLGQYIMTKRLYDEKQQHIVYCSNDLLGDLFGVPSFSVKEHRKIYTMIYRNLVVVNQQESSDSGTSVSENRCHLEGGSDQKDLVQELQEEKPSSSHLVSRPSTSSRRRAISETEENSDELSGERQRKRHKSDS

| Structure (SMILES) | IC50 |
| --- | --- |
| CC(C)(C)S(=O)(=O)C[C@H](C1CC1)N1C(=O)[C@@H](CC#N)O[C@H](c2cccc(Cl)c2)[C@H]1c1ccc(Cl)cc1 (single isomer, unassigned) [Example 388, 2-((2R,5R,6R)-4-((S)-2-(tert-Butylsulfonyl)-1-cyclopropylethyl)-6-(3-chlorophenyl)-5-(4-chlorophenyl)-3-oxomorpholin-2-yl)acetonitrile or 2-((2S,5R,6R)-4-((S)-2-(tert-butylsulfonyl)-1-cyclopropylethyl)-6-(3-chlorophenyl)-5-(4-chlorophenyl)-3-oxomorpholin-2-yl)acetonitrile] | 28 nM |
| CC[C@@H](CN(c1ccccc1Cl)S(=O)(=O)C1CC1)N1C(=O)[C@@H](CC(=O)O)O[C@H](c2cccc(Cl)c2)[C@H]1c1ccc(Cl)cc1 (single isomer, unassigned) [Example 265, 2-((2R,5R,6R)-6-(3-chlorophenyl)-5-(4-chlorophenyl)-4-((S)-1-(N-(2-chlorophenyl)cyclopropanesulfonamido)butan-2-yl)-3-oxomorpholin-2-yl)acetic acid or 2-((2S,5R,6R)-6-(3-chlorophenyl)-5-(4-chlorophenyl)-4-((S)-1-(N-(2-chlorophenyl)cyclopropanesulfonamido)butan-2-yl)-3-oxomorpholin-2-yl)acetic acid] | 1 nM |
| CC[C@@H](CN(c1ccccc1F)S(=O)(=O)C1CC1)N1C(=O)[C@@H](CC(=O)NS(C)(=O)=O)O[C@H](c2cccc(Cl)c2)[C@H]1c1ccc(Cl)cc1 (single isomer, unassigned) [Example 240, 2-((2R,5R,6R)-6-(3-chlorophenyl)-5-(4-chlorophenyl)-4-((S)-1-(N-(2-fluorophenyl)cyclopropanesulfonamido)butan-2-yl)-3-oxomorpholin-2-yl)-N-(methylsulfonyl)acetamide or 2-((2S,5R,6R)-6-(3-chlorophenyl)-5-(4-chlorophenyl)-4-((S)-1-(N-(2-fluorophenyl)cyclopropanesulfonamido)butan-2-yl)-3-oxomorpholin-2-yl)-N-(methylsulfonyl)acetamide] | 11 nM |
| CC(C)(C)S(=O)(=O)C[C@H](C1CC1)N1C(=O)[C@@](C)(CC(=O)O)O[C@H](c2cccc(Cl)c2)[C@H]1c1ccc(Cl)c(F)c1 (single isomer, unassigned) [Example 412, 2-((2R,5R,6R)-4-((S)-2-(tert-Butylsulfonyl)-1-cyclopropylethyl)-5-(4-chloro-3-fluorophenyl)-6-(3-chlorophenyl)-2-methyl-3-oxomorpholin-2-yl)acetic acid or 2-((2S,5R,6R)-4-((S)-2-(tert-butylsulfonyl)-1-cyclopropylethyl)-5-(4-chloro-3-fluorophenyl)-6-(3-chlorophenyl)-2-methyl-3-oxomorpholin-2-yl)acetic acid] | 11 nM |
| O=C(O)C[C@H]1O[C@H](c2cccc(Cl)c2)[C@@H](c2ccc(Cl)cc2)N([C@H](CN(c2ccccc2F)S(=O)(=O)C2CC2)C2CC2)C1=O (single isomer, unassigned) [Example 158, 2-((2R,5R,6R)-6-(3-chlorophenyl)-5-(4-chlorophenyl)-4-((S)-1-cyclopropyl-2-(N-(2-fluorophenyl)cyclopropanesulfonamido)ethyl)-3-oxomorpholin-2-yl)acetic acid or 2-((2S,5R,6R)-6-(3-chlorophenyl)-5-(4-chlorophenyl)-4-((S)-1-cyclopropyl-2-(N-(2-fluorophenyl)cyclopropanesulfonamido)ethyl)-3-oxomorpholin-2-yl)acetic acid] | < 1 nM |
| CC[C@@H](CN(c1ncccc1F)S(=O)(=O)C1CC1)N1C(=O)[C@@H](CC(=O)O)O[C@H](c2cccc(Cl)c2)[C@H]1c1ccc(Cl)cc1 (single isomer, unassigned) [Example 177, 2-((2R,5R,6R)-6-(3-chlorophenyl)-5-(4-chlorophenyl)-4-((S)-1-(N-(3-fluoropyridin-2-yl)cyclopropanesulfonamido)butan-2-yl)-3-oxomorpholin-2-yl)acetic acid or 2-((2S,5R,6R)-6-(3-chlorophenyl)-5-(4-chlorophenyl)-4-((S)-1-(N-(3-fluoropyridin-2-yl)cyclopropanesulfonamido)butan-2-yl)-3-oxomorpholin-2-yl)acetic acid] | < 1 nM |
| O=C(O)C[C@H]1O[C@H](c2cccc(Cl)c2)[C@@H](c2ccc(Cl)cc2)N([C@H](CN(c2ccccc2F)S(=O)(=O)C2CC2)C(F)(F)F)C1=O (single isomer, unassigned) [Example 274] | 4 nM |
| C[C@@H](CS(=O)(=O)C(C)(C)C)N1C(=O)[C@H](CC(=O)N2CCOCC2)O[C@H](c2cccc(Cl)c2)[C@H]1c1ccc(Cl)cc1 (single isomer, unassigned) [Example 235, (2S,5R,6R)-4-((S)-1-(tert-butylsulfonyl)propan-2-yl)-6-(3-chlorophenyl)-5-(4-chlorophenyl)-2-(2-morpholino-2-oxoethyl)morpholin-3-one or (2R,5R,6R)-4-((S)-1-(tert-butylsulfonyl)propan-2-yl)-6-(3-chlorophenyl)-5-(4-chlorophenyl)-2-(2-morpholino-2-oxoethyl)morpholin-3-one] | 11 nM |
| CC[C@@H](CS(=O)(=O)C1CCOCC1)N1C(=O)[C@@H](CC(=O)O)O[C@H](c2cccc(Cl)c2)[C@H]1c1ccc(Cl)cc1 (single isomer, unassigned) [Example 186, 2-((2R,5R,6R)-6-(3-chlorophenyl)-5-(4-chlorophenyl)-3-oxo-4-((S)-1-((tetrahydro-2H-pyran-4-yl)sulfonyl)butan-2-yl)morpholin-2-yl)acetic acid or 2-((2S,5R,6R)-6-(3-chlorophenyl)-5-(4-chlorophenyl)-3-oxo-4-((S)-1-((tetrahydro-2H-pyran-4-yl)sulfonyl)butan-2-yl)morpholin-2-yl)acetic acid] | 2 nM |
| CC[C@@H](CS(=O)(=O)[C@H](C)C(C)C)N1C(=O)[C@H](CC(=O)O)O[C@H](c2cccc(Cl)c2)[C@H]1c1ccc(Cl)cc1 (single isomer, unassigned) [Example 282] | 2 nM |
| CC(C)(C)NS(=O)(=O)C[C@H](C1CC1)N1C(=O)[C@@H](CC(=O)O)O[C@H](c2cccc(Cl)c2)[C@H]1c1ccc(Cl)cc1 (single isomer, unassigned) [Example 292, 2-((2R,5R,6R)-4-((S)-2-(N-(tert-Butyl)sulfamoyl)-1-cyclopropylethyl)-6-(3-chlorophenyl)-5-(4-chlorophenyl)-3-oxomorpholin-2-yl)acetic acid or 2-((2S,5R,6R)-4-((S)-2-(N-(tert-butyl)sulfamoyl)-1-cyclopropylethyl)-6-(3-chlorophenyl)-5-(4-chlorophenyl)-3-oxomorpholin-2-yl)acetic acid] | < 1 nM |
| O=C1[C@@H](Cc2nnn[nH]2)O[C@H](c2cccc(Cl)c2)[C@@H](c2ccc(Cl)cc2)N1[C@H](CN(c1ccccc1F)S(=O)(=O)C1CC1)C1CC1 (single isomer, unassigned) [Example 399, N-((S)-2-((2R,5R,6R)-2-((1H-Tetrazol-5-yl)methyl)-6-(3-chlorophenyl)-5-(4-chlorophenyl)-3-oxomorpholino)-2-cyclopropylethyl)-N-(2-fluorophenyl)cyclopropanesulfonamide or N-((S)-2-((2S,5R,6R)-2-((1H-tetrazol-5-yl)methyl)-6-(3-chlorophenyl)-5-(4-chlorophenyl)-3-oxomorpholino)-2-cyclopropylethyl)-N-(2-fluorophenyl)cyclopropanesulfonamide] | < 1 nM |
| C[C@]1(CC(=O)O)O[C@H](c2cccc(Cl)c2)[C@@H](c2ccc(Cl)cc2)N([C@H](CN(c2ccccc2F)S(=O)(=O)C2CC2)C2CC2)C1=O (single isomer, unassigned) [Example 332, 2-((2R,5R,6R)-6-(3-Chlorophenyl)-5-(4-chlorophenyl)-4-((S)-1-cyclopropyl-2-(N-(2-fluorophenyl)cyclopropanesulfonamido)ethyl)-2-methyl-3-oxomorpholin-2-yl)acetic acid or 2-((2S,5R,6R)-6-(3-chlorophenyl)-5-(4-chlorophenyl)-4-((S)-1-cyclopropyl-2-(N-(2-fluorophenyl)cyclopropanesulfonamido)ethyl)-2-methyl-3-oxomorpholin-2-yl)acetic acid] | 27 nM |
| Cc1n[nH]c(C[C@H]2O[C@H](c3cccc(Cl)c3)[C@@H](c3ccc(Cl)cc3)N([C@H](CN(c3ccccc3F)S(=O)(=O)C3CC3)C3CC3)C2=O)n1 (single isomer, unassigned) [Example 392, N-((S)-2-((2R,3R,6R)-2-(3-Chlorophenyl)-3-(4-chlorophenyl)-6-((3-methyl-1H-1,2,4-triazol-5-yl)methyl)-5-oxomorpholino)-2-cyclopropylethyl)-N-(2-fluorophenyl)cyclopropanesulfonamide or N-((S)-2-((2S,3R,6R)-2-(3-chlorophenyl)-3-(4-chlorophenyl)-6-((3-methyl-1H-1,2,4-triazol-5-yl)methyl)-5-oxomorpholino)-2-cyclopropylethyl)-N-(2-fluorophenyl)cyclopropanesulfonamide] | < 1 nM |
| CC[C@@H](CN(c1ccccc1F)S(=O)(=O)C1CC1)N1C(=O)[C@@H](CC(=O)NS(=O)(=O)C(C)C)O[C@H](c2cccc(Cl)c2)[C@H]1c1ccc(Cl)cc1 (single isomer, unassigned) [Example 259, 2-((2R,5R,6R)-6-(3-chlorophenyl)-5-(4-chlorophenyl)-4-((S)-1-(N-(2-fluorophenyl)cyclopropanesulfonamido)butan-2-yl)-3-oxomorpholin-2-yl)-N-(isopropylsulfonyl)acetamide or 2-((2S,5R,6R)-6-(3-chlorophenyl)-5-(4-chlorophenyl)-4-((S)-1-(N-(2-fluorophenyl)cyclopropanesulfonamido)butan-2-yl)-3-oxomorpholin-2-yl)-N-(isopropylsulfonyl)acetamide] | 1 nM |
